Results: patent US10301267B2, “Compounds” (AstraZeneca AB, priority 2006, dated 2019)
Structures can show the parent of a compound that is named as a salt.

Each compound was assayed against FGFR1 active kinase (Homo sapiens, UniProt P11362) (assay: FGFR Kinase assay - Caliper). Conditions: FGFR1 […], 408 uM ATP; mean of n as printed; read-out: FGFR Kinase assay - Caliper, IC50.
Assay type: biochemical
Description: FGFR Kinase Assay—Caliper
To determine inhibition of FGFR activity, kinase assays were conducted using Caliper technology.
Kinase activity assays were performed in Greiner 384-well low volume plates, with a total reaction volume of 12 ul per well. Final concentration of FGFR1 active kinase in each reaction well was 7.2 nM. The substrate for each assay was a custom peptide with fluorescent tag (13 amino acids in length, […] with the fluorescene tag on the first K).
Compounds were serially diluted in 5% (v/v) DMSO, before being added to assay plates. The Enzyme (at 7.2 nM [final]) and Substrate (at 3.6 uM [final]) were added separately to the compound plates, in reaction buffer [comprising: 50 mM MOPS (Sigma, Catalogue No. M1254)—pH 6.5, 0.004% Triton (Sigma, Catalogue No. X-100), 2.4 mM DTT, 12 mM MgCl2, 408 uM ATP] resulting in a final DMSO concentration in the reaction mix of 0.8%.
Assay plates were incubated at room temperature for 1.5 h, before the reaction was stopped with the addition of buffer [comprising: 100 mM HEPES—pH7.5, 0.033% Brij-35 (Sigma Catalogue No. B4184), 0.22% Caliper Coating Reagent #3 (Caliper Life Sciences Catalogue No. 760050), 88 mM EDTA, 5% DMSO]. Stopped assay plates were then read using the Caliper LabChip® LC3000 (which uses microfludics to measure a shift in mobility between fluorescent labelled peptide and the FGFR1 kinase—phosphorylated form of this peptide).
In the assay, compounds were tested at a range of concentrations.
Percentage inhibition at 1 uM, as expressed herein, is a calculated value based on the curve fit that was generated experimentally. From the fitted curve plot, the effect of compound at a concentration of 1 uM was calculated as a percentage inhibition. The IC50 is the concentration of compound, which inhibits FGFR1 kinase activity by 50% in the context of this assay.
Further: 408 µM ATP.

Sequence of FGFR1 active kinase (P11362 22-822): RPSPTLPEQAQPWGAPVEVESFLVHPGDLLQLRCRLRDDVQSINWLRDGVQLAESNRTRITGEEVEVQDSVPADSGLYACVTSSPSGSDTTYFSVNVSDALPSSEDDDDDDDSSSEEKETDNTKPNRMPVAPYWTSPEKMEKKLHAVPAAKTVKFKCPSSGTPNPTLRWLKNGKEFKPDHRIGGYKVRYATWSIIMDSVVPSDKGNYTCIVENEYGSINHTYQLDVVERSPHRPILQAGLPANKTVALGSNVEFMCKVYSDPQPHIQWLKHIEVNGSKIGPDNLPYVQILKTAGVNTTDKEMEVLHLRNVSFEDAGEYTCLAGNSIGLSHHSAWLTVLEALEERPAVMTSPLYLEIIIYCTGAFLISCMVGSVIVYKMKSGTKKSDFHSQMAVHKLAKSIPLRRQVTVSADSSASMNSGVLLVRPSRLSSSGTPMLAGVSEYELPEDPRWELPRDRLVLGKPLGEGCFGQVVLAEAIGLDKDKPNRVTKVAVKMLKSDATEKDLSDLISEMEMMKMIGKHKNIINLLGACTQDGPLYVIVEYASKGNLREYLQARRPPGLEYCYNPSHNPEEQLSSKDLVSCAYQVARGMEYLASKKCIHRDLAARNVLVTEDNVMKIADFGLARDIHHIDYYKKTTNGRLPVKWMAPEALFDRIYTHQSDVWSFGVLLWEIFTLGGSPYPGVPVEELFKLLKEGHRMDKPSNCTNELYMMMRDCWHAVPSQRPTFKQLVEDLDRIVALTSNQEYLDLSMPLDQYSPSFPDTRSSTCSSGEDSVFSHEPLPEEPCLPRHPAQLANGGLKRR

Compared with COc1cc(CCc2cc(NC(=O)c3ccc(N4CCN(C)C(C)C4)cc3)n[nH]2)cc(OC)c1 (stereo not shown) [Example 81, N-[5-[2-(3,5-Dimethoxyphenyl)ethyl]-1H-pyrazol-3-yl]-4-(3,4-dimethylpiperazin-1-yl)benzamide], COc1cc(CCc2cc(NC(=O)c3ccc(N4CCN(C(C)C)CC4)cc3)n[nH]2)cc(OC)c1 [Example 87, N-[5-[2-(3,5-Dimethoxyphenyl)ethyl]-1H-pyrazol-3-yl]-4-(4-propan-2-ylpiperazin-1-yl)benzamide] is 100-fold lower in IC50: 40 nM for the first, 0.4 nM for the second.

Going from COc1cc(CCc2cc(NC(=O)c3ccc(CN4CCCC(F)C4)cc3)n[nH]2)cc(OC)c1 (stereo not shown) [Example 53, N-[5-[2-(3,5-Dimethoxyphenyl)ethyl]-1H-pyrazol-3-yl]-4-[(3-fluoro-1-piperidyl)methyl]benzamide] to COc1cc(CCc2cc(NC(=O)c3ccc(CN4CCCC(C)(C)C4)cc3)n[nH]2)cc(OC)c1 [Example 50, N-[5-[2-(3,5-Dimethoxyphenyl)ethyl]-1H-pyrazol-3-yl]-4-[(3,3-dimethyl-1-piperidyl)methyl]benzamide], the IC50 falls from 90 nM to 1 nM (90-fold).

First: COc1cc(CCc2cc(NC(=O)c3ccc(N4CCCCC4)cc3)n[nH]2)cc(OC)c1 [Example 43, N-[5-[2-(3,5-Dimethoxyphenyl)ethyl]-1H-pyrazol-3-yl]-4-(1-piperidyl)benzamide]
Second: COc1cc(CCc2cc(NC(=O)c3ccc(CCN4CCOCC4)cc3)n[nH]2)cc(OC)c1 [Example 56, N-[5-[2-(3,5-Dimethoxyphenyl)ethyl]-1H-pyrazol-3-yl]-4-(2-morpholin-4-ylethyl)benzamide]
The IC50 of the first is 3.6-fold higher: 438 nM for the first, 120 nM for the second. The second is the more potent here.

Compared with COc1cc(COc2cc(NC(=O)c3cnc(N4CCN(C)CC4)nc3)n[nH]2)cc(OC)c1 [Example 73, N-[5-[(3,5-Dimethoxyphenyl)methoxy]-1H-pyrazol-3-yl]-2-(4-methylpiperazin-1-yl)pyrimidine-5-carboxamide], COc1cc(COc2cc(NC(=O)c3ccc(N4CCN(C)CC4)cn3)[nH]n2)cc(OC)c1 [Example 69, N-[5-[(3,5-Dimethoxyphenyl)methoxy]-2H-pyrazol-3-yl]-5-(4-methylpiperazin-1-yl)pyridine-2-carboxamide] is 2.8-fold higher in IC50: 44 nM for the first, 122 nM for the second.

Compared with COc1cccc(CCc2cc(NC(=O)c3ccc(-n4cncn4)cc3)[nH]n2)c1 [Example 36, N-[5-[2-(3-Methoxyphenyl)ethyl]-2H-pyrazol-3-yl]-4-(1,2,4-triazol-1-yl)benzamide], COc1cccc(CCc2cc(NC(=O)c3ccc(-n4cnnn4)cc3)[nH]n2)c1 [Example 34, N-[5-[2-(3-Methoxyphenyl)ethyl]-2H-pyrazol-3-yl]-4-(tetrazol-1-yl)benzamide] is 1.5-fold higher in IC50: 660 nM for the first, 1000 nM for the second. The first is the more potent here.

First: COc1cc(CCc2cc(NC(=O)c3ccc(CN(C)C)cc3)n[nH]2)cc(OC)c1 [Example 47, N-[5-[2-(3,5-Dimethoxyphenyl)ethyl]-1H-pyrazol-3-yl]-4-(dimethylaminomethyl)benzamide]
Second: COc1cc(CCc2cc(NC(=O)c3ccc(OCCO)cc3)n[nH]2)cc(OC)c1 [Example 48, N-[5-[2-(3,5-Dimethoxyphenyl)ethyl]-1H-pyrazol-3-yl]-4-(2-hydroxyethoxy)benzamide]
The IC50 of the first is 2.1-fold lower: 19 nM for the first, 39 nM for the second.

COc1cc(CCc2cc(NC(=O)c3ccc(C(=O)N4CCN(C)CC4)cc3)n[nH]2)cc(OC)c1 [Example 86, N-[5-[2-(3,5-Dimethoxyphenyl)ethyl]-1H-pyrazol-3-yl]-4-(4-methylpiperazine-1-carbonyl)benzamide] and COc1cc(CCc2cc(NC(=O)c3ccc(OCCN4CCOCC4)cc3)n[nH]2)cc(OC)c1 [Example 54, N-[5-[2-(3,5-Dimethoxyphenyl)ethyl]-1H-pyrazol-3-yl]-4-(2-morpholin-4-ylethoxy)benzamide] are the same in IC50: 96 nM for the first, 96 nM for the second.

COc1cccc(CCc2cc(NC(=O)c3ccc(C#N)nc3)[nH]n2)c1 [Example 63, 6-Cyano-N-[5-[2-(3-methoxyphenyl)ethyl]-2H-pyrazol-3-yl]pyridine-3-carboxamide] and COc1cccc(CCc2cc(NC(=O)c3ccc(Cl)nc3)[nH]n2)c1 [Example 62, 6-Chloro-N-[5-[2-(3-methoxyphenyl)ethyl]-2H-pyrazol-3-yl]pyridine-3-carboxamide] are within 1.5-fold of each other in IC50: 3770 nM for the first, 4540 nM for the second.

Going from COc1ccc(OC)c(CCc2cc(NC(=O)c3ccc(N4CCN(C)CC4)cc3)[nH]n2)c1 [Example 78, N-[5-[2-(2,5-Dimethoxyphenyl)ethyl]-2H-pyrazol-3-yl]-4-(4-methylpiperazin-1-yl)benzamide] to COc1cc(CCc2cc(NC(=O)c3ccc(N4CCN5CCCC5C4)cc3)[nH]n2)cc(OC)c1 (stereo not shown) [Example 93, 4-(3,4,6,7,8,8a-Hexahydro-1H-pyrrolo[2,1-c]pyrazin-2-yl)-N-[5-[2-(3,5-dimethoxyphenyl)ethyl]-2H-pyrazol-3-yl]benzamide], the IC50 falls from 470 nM to 37 nM (13-fold).

Compared with COC(=O)c1ccc(C(=O)Nc2cc(CCc3cccc(OC)c3)n[nH]2)nc1 [Example 61, Methyl 6-[[5-[2-(3-methoxyphenyl)ethyl]-2H-pyrazol-3-yl]carbamoyl]pyridine-3-carboxylate], COC(=O)c1ccc(C(=O)Nc2cc(CCc3cccc(OC)c3)n[nH]2)cn1 [Example 67, Methyl 5-[[5-[2-(3-methoxyphenyl)ethyl]-2H-pyrazol-3-yl]carbamoyl]pyridine-2-carboxylate] is 24-fold lower in IC50: 68000 nM for the first, 2860 nM for the second.

Going from C=CCOC(=O)Nc1ccc(C(=O)Nc2cc(CCc3cccc(OC)c3)n[nH]2)cn1 [Example 35, Prop-2-enyl N-[5-[[5-[2-(3-methoxyphenyl)ethyl]-2H-pyrazol-3-yl]carbamoyl]pyridin-2-yl]carbamate] to COc1cccc(CCc2cc(NC(=O)c3ccc(CO)cc3)[nH]n2)c1 [Example 28, 4-(Hydroxymethyl)-N-[5-[2-(3-methoxyphenyl)ethyl]-2H-pyrazol-3-yl]benzamide], the IC50 falls from 76000 nM to 74 nM (1000-fold). The second is the more potent here.

Going from COc1cc(COc2cc(NC(=O)c3cccc(N4CCNCC4)c3)n[nH]2)cc(OC)c1 [Example 74, N-[5-[(3,5-Dimethoxyphenyl)methoxy]-1H-pyrazol-3-yl]-3-piperazin-1-yl-benzamide] to COc1cc(COc2cc(NC(=O)c3ccc(N4CCCNCC4)cc3)n[nH]2)cc(OC)c1 [Example 75, 4-(1,4-Diazepan-1-yl)-N-[5-[(3,5-dimethoxyphenyl)methoxy]-1H-pyrazol-3-yl]benzamide Hydrochloride], the IC50 falls from 130 nM to 8.5 nM (15-fold).

Compared with COc1cc(CCc2cc(NC(=O)c3ccccc3NCc3cc(C)no3)n[nH]2)cc(OC)c1 [Example 83, N-[5-[2-(3,5-Dimethoxyphenyl)ethyl]-1H-pyrazol-3-yl]-2-[(3-methyl-1,2-oxazol-5-yl)methylamino]benzamide], COc1cc(COc2cc(NC(=O)c3ccc(NCCN(C)C)cc3)[nH]n2)cc(OC)c1 [Example 70, N-[5-[(3,5-Dimethoxyphenyl)methoxy]-2H-pyrazol-3-yl]-4-(2-dimethylaminoethylamino)benzamide Hydrochloride] is 32-fold lower in IC50: 1000 nM for the first, 31 nM for the second.

Going from COc1cccc(CCc2cc(NC(=O)c3ccc(C#N)cc3)[nH]n2)c1 [Example 23, 4-Cyano-N-[5-[2-(3-methoxyphenyl)ethyl]-2H-pyrazol-3-yl]benzamide] to COc1cccc(CCc2cc(NC(=O)c3ccc(S(=O)(=O)N(C)C)cc3)[nH]n2)c1 [Example 30, 4-(Dimethylsulfamoyl)-N-[5-[2-(3-methoxyphenyl)ethyl]-2H-pyrazol-3-yl]benzamide], the IC50 falls from 28600 nM to 800 nM (36-fold). The second is the more potent here.

CN(C)Cc1ccc(CCc2cc(NC(=O)c3ccc(N4CCN(C)CC4)cc3)n[nH]2)o1 [Example 76, N-[5-[2-[5-(Dimethylaminomethyl)-2-furyl]ethyl]-1H-pyrazol-3-yl]-4-(4-methylpiperazin-1-yl)benzamide] and COc1cccc(CCc2cc(NC(=O)c3ccc(N4CCN(S(C)(=O)=O)CC4)cc3)n[nH]2)c1 [Example 91, N-[5-[2-(3-Methoxyphenyl)ethyl]-1H-pyrazol-3-yl]-4-(4-methylsulfonylpiperazin-1-yl)benzamide] are within 1.5-fold of each other in IC50: 340 nM for the first, 250 nM for the second.

Compared with COc1cc(COc2cc(NC(=O)c3ccc(N4CCNCC4)nc3)[nH]n2)cc(OC)c1 [Example 72, N-[5-[(3,5-Dimethoxyphenyl)methoxy]-2H-pyrazol-3-yl]-6-piperazin-1-yl-pyridine-3-carboxamide], COc1cc(CCc2cc(NC(=O)c3ccc(N4CCN(C)CC4)nn3)[nH]n2)cc(OC)c1 [Example 84, N-[5-[2-(3,5-Dimethoxyphenyl)ethyl]-2H-pyrazol-3-yl]-6-(4-methylpiperazin-1-yl)pyridazine-3-carboxamide] is 16-fold higher in IC50: 25 nM for the first, 390 nM for the second.

Going from COc1cccc(CCc2cc(NC(=O)c3ccc(CCN4CCCC4)nc3)[nH]n2)c1 [Example 65, N-[5-[2-(3-Methoxyphenyl)ethyl]-2H-pyrazol-3-yl]-6-(2-pyrrolidin-1-ylethyl)pyridine-3-carboxamide] to COc1cccc(CCc2cc(NC(=O)c3ccc(NC=O)cn3)[nH]n2)c1 [Example 29, 5-Formamido-N-[5-[2-(3-methoxyphenyl)ethyl]-2H-pyrazol-3-yl]pyridine-2-carboxamide], the IC50 rises from 240 nM to 870 nM (3.6-fold). The first is the more potent here.
